From ChEMBL document CHEMBL1143507, “Molecular-modeling based design, synthesis, and activity of substituted piperidines as gamma-secretase inhibitors” (Bioorg Med Chem Lett, 2005)

Columns and labels:
[1] = target: T1, Amyloid-beta precursor protein (Homo sapiens, UniProt P05067); assay: In vitro effective concentration against beta amyloid protein 42 in ELISA; increase in presence of weak inhibitor
Target sequence in this assay (P05067 whole entry): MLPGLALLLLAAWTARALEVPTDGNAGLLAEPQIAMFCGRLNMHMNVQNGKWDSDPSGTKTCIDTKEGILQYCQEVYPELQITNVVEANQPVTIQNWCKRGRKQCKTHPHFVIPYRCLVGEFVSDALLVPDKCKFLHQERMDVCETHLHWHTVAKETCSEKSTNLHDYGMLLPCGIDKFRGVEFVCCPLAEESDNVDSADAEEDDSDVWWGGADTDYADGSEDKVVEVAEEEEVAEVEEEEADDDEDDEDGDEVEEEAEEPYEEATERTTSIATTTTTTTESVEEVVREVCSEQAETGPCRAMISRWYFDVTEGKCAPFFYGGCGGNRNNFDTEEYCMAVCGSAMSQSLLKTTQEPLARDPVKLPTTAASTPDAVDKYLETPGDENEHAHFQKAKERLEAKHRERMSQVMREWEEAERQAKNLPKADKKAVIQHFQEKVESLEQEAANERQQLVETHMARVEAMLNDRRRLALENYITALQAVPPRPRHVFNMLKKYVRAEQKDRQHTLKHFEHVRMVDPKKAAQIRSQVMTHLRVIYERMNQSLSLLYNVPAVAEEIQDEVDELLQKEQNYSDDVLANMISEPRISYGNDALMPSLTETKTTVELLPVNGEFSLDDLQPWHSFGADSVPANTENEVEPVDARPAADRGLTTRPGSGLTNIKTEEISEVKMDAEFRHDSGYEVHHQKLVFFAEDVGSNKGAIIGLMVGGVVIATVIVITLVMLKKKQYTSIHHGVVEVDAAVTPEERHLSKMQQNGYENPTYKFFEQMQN

[2] = target: T1, Amyloid-beta precursor protein; assay: Percent inhibition of beta amyloid protein 40 activity in ELISA at 100 uM
Target sequence in this assay (P05067 whole entry): as above

[3] = target: T1, Amyloid-beta precursor protein; assay: In vitro elevation of beta C-terminal fragment (Ct-99) in CHO cells expressing mutant Swedish NL human APP; format: functional, cell-based
Target sequence in this assay (P05067 18-770 limits assumed): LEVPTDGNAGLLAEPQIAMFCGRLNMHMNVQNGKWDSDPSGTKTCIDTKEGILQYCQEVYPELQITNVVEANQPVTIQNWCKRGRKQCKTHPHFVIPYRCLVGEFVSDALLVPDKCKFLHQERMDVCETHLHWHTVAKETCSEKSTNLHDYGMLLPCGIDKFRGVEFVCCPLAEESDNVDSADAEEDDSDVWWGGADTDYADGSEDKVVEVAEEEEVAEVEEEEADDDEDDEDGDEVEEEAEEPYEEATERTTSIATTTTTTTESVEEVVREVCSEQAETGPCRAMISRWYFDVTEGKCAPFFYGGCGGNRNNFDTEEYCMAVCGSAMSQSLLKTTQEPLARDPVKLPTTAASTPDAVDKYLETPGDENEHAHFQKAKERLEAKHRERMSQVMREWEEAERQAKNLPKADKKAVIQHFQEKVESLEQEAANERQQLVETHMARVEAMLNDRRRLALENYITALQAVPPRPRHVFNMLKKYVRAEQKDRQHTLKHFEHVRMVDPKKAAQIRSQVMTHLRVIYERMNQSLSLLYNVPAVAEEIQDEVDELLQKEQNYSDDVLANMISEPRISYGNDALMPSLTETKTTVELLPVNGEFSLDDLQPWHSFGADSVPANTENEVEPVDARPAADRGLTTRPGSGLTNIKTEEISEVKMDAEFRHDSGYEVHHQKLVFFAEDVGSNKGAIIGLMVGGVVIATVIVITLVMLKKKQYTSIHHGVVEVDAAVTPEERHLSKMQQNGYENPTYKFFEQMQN

[4] = target: T1, Amyloid-beta precursor protein; assay: In vitro reduction of Swedish NL mutant amyloid precursor protein activity expressed in CHO cells; format: functional, cell-based
Target sequence in this assay (P05067 18-770 limits assumed): as above

Compound | EC50 [1] | further results
CCOC(=O)N1CCC(c2ccccc2)(S(=O)(=O)c2ccc(OC)cc2)CC1 | Increase | –
CCOC(=O)N1CCC(c2ccccc2C)(S(=O)(=O)c2ccc(OC)cc2)CC1 | Increase | –
CCOC(=O)N1CCC(c2ccccc2)(S(=O)(=O)c2ccccc2)CC1 | Increase | inhibition [2]: 84%
CCOC(=O)N1CCC(c2ccccc2OC)(S(=O)(=O)c2ccc(Cl)cc2)CC1 | – | EC50 [3]: 640 nM; EC50 [4]: 530 nM
CCOC(=O)N1CCC(c2ccccc2OC)(S(=O)(=O)c2ccc(OC)cc2)CC1 | Increase | –
CCOC(=O)N1CCC(c2ccccc2OC)(S(=O)(=O)c2ccccc2)CC1 | Increase | –
CCOC(=O)N1CCC(c2ccccc2C)(S(=O)(=O)c2ccccc2)CC1 | Increase | –
